According to US20190309053A1, “PROLONGATION OF SURVIVAL OF AN ALLOGRAFT BY INHIBITING COMPLEMENT ACTIVITY” (Alexion Pharmaceuticals, Inc., priority 2004, published 2019):

Key:
[1] = tested on: C3H heart allografts in presensitized BALB/c recipients; assay: Graft histology (H&E), presensitized model (Examples 1-2); format: in vivo, mouse; details: at rejection or POD100
From the text: (§1) Tissue samples were fixed in 10% buffered formaldehyde. Specimens were then embedded in paraffin, and sectioned for H&E staining. The microscopic sections were examined in a blinded fashion for severity of rejection by a pathologist. Criteria for graft rejection included the presence of vasculitis, thrombosis, hemorrhage and lymphocyte infiltration. These changes were scored as: 0, no change; 1, minimum change; 2, mild change; 3, moderate change; or 4, marked change.
(§2) However, the inhibitory effect of functionally blocking terminal complement cascade at the C5 level in highly sensitized recipients is unknown.

[2] = tested on: heart allografts in presensitized mouse recipients; assay: Immunoperoxidase staining of heart allografts; format: in vivo; design: key to C3 immunoperoxidase staining grade / C5 immunoperoxidase staining grade / CD4 immunoperoxidase staining grade / CD8 immunoperoxidase staining grade / Mac-1 immunoperoxidase staining grade / IgG immunoperoxidase staining grade / IgM immunoperoxidase staining grade: 0, negative; 1+, equivocal; 2+, weak; 3+, moderate; 4+, intense
From the text: Four micrometer sections were cut from tissue samples embedded in Tissue-Tek O.C.T gel (Optimum Cutting Temperature, Skura Finetek, Torrance, Calif.) mounted on gelatin-coated glass microscope slides and stained by a standard indirect avidin-biotin immunoperoxidase staining method using an Elite Vectastain ABC kit (Vector Laboratories Inc., Burlingame, Calif.). Specimens were stained for CD4^+ and CD8^+ cells with biotin-conjugated rat anti-mouse CD4 mAb (clone YTS 191.1.2, Cedarlane Laboratories Ltd., Hornby, Ontario, Canada) and biotin-conjugated rat anti-mouse CD8 mAb (clone 53-6.7, Pharmingen, Franklin Lakes, N.J.), respectively. Intragraft monocyte/macrophage infiltration was detected by staining with biotin-conjugated rat anti-mouse Mac-1 mAb (Cedarlane Laboratories Ltd., Hornby, Ontario, Canada). Mouse IgG and IgM deposition in grafts was detected using biotin-conjugated goat anti-mouse-IgG and goat anti-mouse-IgM (Cedarlane). For identification of complement deposition, sections were serially incubated with goat anti-C3 or anti-C5 polyclonal Abs (Quidel, San Diego, Calif.), biotinylated rabbit anti-goat IgG (Vector Laboratories), and HRP-conjugated-streptavidin (Zymed Laboratories, South San Francisco, Calif.). Slides were washed with phosphate-buffered saline between steps, and examined under light microscopy. Negative controls were performed by omitting the primary antibodies. The immunostaining was scored in five high-power fields of each section, and five independent experiments were performed. The sections of immunoperoxidase staining were graded from 0 to 4+ according to the staining intensity: 0, negative; 1+, equivocal; 2+, weak staining; 3+, moderate staining; and 4+, very intensive staining.

[3] = tested on: terminal complement activity; assay: Complement hemolytic assay of recipient sera; format: in vivo, mouse; details: presensitized heart recipients, POD3
Experimental: The purified anti-C5 mAb was serially diluted twofold (175-0.1 μg/ml) in GVB^2+ buffer (gelatin Veronal-buffered saline: 0.1% gelatin, 141 mM NaCl, 0.5 mM MgCl2, 0.15 mM CaCl2), and 1.8 mM sodium barbital) and added in triplicate (50 μl/well) to a 96-well plate. BALB/c mouse serum was diluted to 40% v/v with GVB^2+ buffer and added […] to the rows of the same 96-well plate such that the final concentration of BALB/c mouse serum in each well was 20%. The plate was then incubated at room temperature for approximately 30 min while chicken erythrocytes were prepared. Chicken erythrocytes were washed 5×1 ml with GVB^2+ buffer and resuspended to a final concentration of 5×10^7/ml in GVB^2+. Four milliliters of the chicken erythrocytes were sensitized by adding anti-chicken RBC polyclonal antibody (Intercell Technologies, Hopewell, N.J., 0.1% v/v) and the cells were incubated at 4° C. for 15 min with frequent vortexing. The cells were then washed 2×1 ml with GVB^2+ and resuspended to a final volume of 2.4 ml in GVB^2+. […] The plate was read at OD 415 nm using a microplate reader and the percentage of hemolysis was determined using this formula: […]
In the current study, terminal complement activity was measured by assessing the ability of recipient mouse sera to lyse antibody presensitized chicken erythrocytes and was compared at the same time-point (POD3).

[4] = tested on: anti-donor specific IgG and IgM antibodies; assay: Flow cytometry of circulating anti-donor antibodies; format: in vivo, mouse; details: presensitized recipients, POD3
Experimental: The circulating anti-donor specific IgG and IgM antibodies were evaluated in the recipient serum by FACScan flow cytometry (Becton Dickinson, Mountain View, Calif.). Glotz et al., (1993); Tyan et al. (1994). Briefly, C3H mouse splenocytes were isolated and incubated at 37° C. for 30 minutes with serum from naive control and experimental groups. To stain for total IgG, IgG1, IgG2a, IgG2b and IgM, the cells were washed and incubated with FITC-conjugated goat antibody specific for the Fc portion of mouse IgG or with phycoerythrin-conjugated goat antibody specific for the μ-chain of mouse IgM (Jackson ImmunoResearch Laboratories, West Grove, Pa.), or with FITC-conjugated goat anti-mouse IgG1 (CALTAG Laboratories, Burlingame, Calif.), or with FITC-conjugated goat anti-mouse IgG2a (CALTAG), or with FITC-conjugated goat anti-mouse IgG2b (CALTAG). After 1 hour of staining at 4° C., the cells were washed with PBS, resuspended at 5×10^6/mL, and analyzed by flow cytometry for mean channel fluorescence intensity, which represents the antibody-binding reactivity.

[5] = tested on: C3H heart allografts in BALB/c mice presensitized with C3H skin grafts; assay: Accelerated rejection in presensitized heart transplantation model, allograft survival (Example 4); format: in vivo, mouse; details: BB5.1 40 mg/kg i.p. daily from day -1, cyclosporin A 15 mg/kg s.c. daily, cyclophosphamide 40 mg/kg i.v. days 0 and 1
From the text: In these experiments, the presensitization was brought about by prior transplantation of a skin graft. In general, presensitization can occur not only as a result of having received an earlier allograft, but can also be caused by having received multiple blood transfusions or in women who have been pregnant. Besides such presensitization methods, allografts with an ABO mismatch will be rapidly attacked and rejected because of preformed antibodies to the ABO antigens unless steps are taken to prevent such an attack.
(§3) This model is designed to mimic presensitized transplantation in humans, especially in relation to accelerated humoral rejection. Recipient mice were split into eight groups of six to eight mice each. The treatments were as follow.
Group 3″ (BB5.1 alone)—mice were administered the anti-mouse complement monoclonal antibody BB5.1 at a dose of 40 mg/kg body weight delivered intraperitoneally on a daily basis beginning at day −1 and continuing until the endpoint.
Group 4″ (cyclophosphamide alone)—mice were administered cyclophosphamide intravenously at a dose of 40 mg/kg body weight on each of days 0 and 1.
Group 6″ (BB5.1 plus cyclophosphamide)—mice were administered BB5.1 intraperitoneally at a dose of 40 mg/kg body weight on a daily basis beginning at day −1 and continuing until the endpoint. […]

[6] = tested on: C3H heart allografts in presensitized BALB/c recipients; assay: Heart allograft survival in presensitized recipients (Examples 1-2); format: in vivo, mouse; details: C3H heart in skin-presensitized BALB/c; mean±SD; CsA 15 mg/kg/day s.c., CyP 40 mg/kg/day i.v. day 0 and 1, anti-C5 mAb 40 mg/kg/day i.p.
From the text: Rejection was defined as complete necrosis of the skin grafts.
as §2

[7] = tested on: C3H heart allografts in BALB/c mice presensitized with C3H skin grafts; assay: Histological changes of heart allografts at necropsy (Example 4); format: in vivo, mouse; details: endpoint, 0 normal to 4 marked change
From the text: as §1, §3

[8] = tested on: cardiac allograft in presensitized rats; details: cited from earlier work

Compound	graft histology (pathological features) [1]	intragraft Mac-1+ cell infiltration (monocytes and macrophages) [2]	C3 immunoperoxidase staining grade ([2]; necropsy POD3)	C5 immunoperoxidase staining grade ([2]; necropsy POD3)	CD4 immunoperoxidase staining grade ([2]; necropsy POD3)	CD8 immunoperoxidase staining grade ([2]; necropsy POD3)	IgG immunoperoxidase staining grade ([2]; necropsy POD3)	IgM immunoperoxidase staining grade ([2]; necropsy POD3)	Mac-1 immunoperoxidase staining grade ([2]; necropsy POD3)	terminal complement activity (lysis of antibody presensitized chicken erythrocytes by recipient sera) [3]	circulating anti-donor IgG levels [4]	Mean survival time [5] [days]	heart graft survival (grafts were rejected in) [6] [days]	Hemo (hemorrhage) median histological score [7]	Infar (infarction) median histological score [7]	Lymph (lymphocyte infiltration) median histological score [7]	Throm (thrombosis) median histological score [7]	Vasc (vasculitis) median histological score [7]	time before graft rejection ([8]; Pruitt and Bollinger (1991), similar presensitized rat allograft model, sCR1 alone)	average time at which grafts were rejected ([8]; presensitized rats, cyclosporin A 10 mg/kg/day i.m. from two days prior to transplant, sCR1 single i.v. bolus 15 mg/kg before reperfusion) [days]
O=P1(N(CCCl)CCCl)NCCCO1 (centres unmarked) [Cyclophosphamide, cyclophosphamide]	typical pathological features of ACHR	moderate	3+	3+	1+	1+	3+	1+	3+	had no effect	partially down-regulated	3.3 ± 0.5	3.3 ± 0.5	2.0	4.0	0.0	3.0	2.0	–	–
sCR1: soluble complement receptor 1; binds complements C3b and C4b	–	–	–	–	–	–	–	–	–	–	–	–	–	–	–	–	–	–	increased time before graft rejection	44
